In ChEMBL document CHEMBL4819039, “Taxonomy Driven Discovery of Polyketides from Aspergillus californicus” (2021):
Active and inactive are the calls of the source.

How the values were obtained:
Staphylococcus aureus [1] = test: Antibacterial activity against methicillin-sensitive Staphylococcus aureus ATCC 29213 assessed as inhibition of bacterial growth; type: functional
MIA PaCa-2 = test: Cytotoxicity against human MIA PaCa-2 cells after 72 hrs by MTT assay; type: functional, cell-based
MCF7 = test: Cytotoxicity against human MCF7 cells after 72 hrs by MTT assay; type: functional, cell-based
Escherichia coli = test: Antibacterial activity against Escherichia coli ATCC 25922 assessed as inhibition of bacterial growth; type: functional
A2058 = test: Cytotoxicity against human A2058 cells after 72 hrs by MTT assay; type: functional, cell-based
A549 = test: Cytotoxicity against human A549 cells after 72 hrs by MTT assay; type: functional, cell-based
HepG2 = test: Cytotoxicity against human HepG2 cells after 72 hrs by MTT assay; type: functional, cell-based
HL-60 = test: Cytotoxicity against human HL-60 cells after 72 hrs by CCK-8 assay; type: functional, cell-based
Staphylococcus aureus [2] = test: Antibacterial activity against methicillin-resistance Staphylococcus aureus MB5393 assessed as inhibition of bacterial growth; type: functional
Klebsiella pneumoniae = test: Antibacterial activity against Klebsiella pneumoniae ATCC 700603 assessed as inhibition of bacterial growth; type: functional

CCCCCC(=O)[C@@]1(O)C=Cc2c(CC=C(C)C)ccc(O)c2[C@@H]1O
> 64 µg/mL: MIC (Staphylococcus aureus [1]) | MIC (Escherichia coli) | MIC (Staphylococcus aureus [2]) | MIC (Klebsiella pneumoniae)
inactive: Activity (MIA PaCa-2) | Activity (MCF7) | Activity (A2058) | Activity (A549) | Activity (HepG2) | Activity (HL-60)

CCCCC[C@H](O)[C@@H](O)C[C@H]1OC(=O)c2c(O)ccc(CC=C(C)C)c21
> 64 µg/mL: MIC (Staphylococcus aureus [1]) | MIC (Escherichia coli) | MIC (Staphylococcus aureus [2]) | MIC (Klebsiella pneumoniae)
inactive: Activity (MIA PaCa-2) | Activity (MCF7) | Activity (A2058) | Activity (A549) | Activity (HepG2) | Activity (HL-60)

CCCCCC(=O)[C@]1(O)C=Cc2c(CC=C(C)C)ccc(O)c2[C@H]1O
inactive: Activity (MIA PaCa-2) | Activity (MCF7) | Activity (A2058) | Activity (A549) | Activity (HepG2) | Activity (HL-60)
> 64 µg/mL: MIC (Staphylococcus aureus [1]) | MIC (Escherichia coli) | MIC (Staphylococcus aureus [2]) | MIC (Klebsiella pneumoniae)

CCCCC/C=C/C=C/c1cccc(O)c1CO
inactive: Activity (MIA PaCa-2) | Activity (MCF7) | Activity (Escherichia coli) | Activity (A2058) | Activity (A549) | Activity (HepG2) | Activity (HL-60) | Activity (Klebsiella pneumoniae)
48 µg/mL: MIC (Staphylococcus aureus [1]) | MIC (Staphylococcus aureus [2])

CCCCC[C@H](O)C(=O)C[C@H]1OC(=O)c2c(O)ccc(CC=C(C)C)c21
> 64 µg/mL: MIC (Staphylococcus aureus [1]) | MIC (Escherichia coli) | MIC (Staphylococcus aureus [2]) | MIC (Klebsiella pneumoniae)
inactive: Activity (MIA PaCa-2) | Activity (MCF7) | Activity (A2058) | Activity (A549) | Activity (HepG2) | Activity (HL-60)

CCCCC[C@H](O)C(=O)C[C@@H]1OC(=O)c2c(O)ccc(CC=C(C)C)c21
> 64 µg/mL: MIC (Staphylococcus aureus [1]) | MIC (Escherichia coli) | MIC (Staphylococcus aureus [2]) | MIC (Klebsiella pneumoniae)
inactive: Activity (MIA PaCa-2) | Activity (MCF7) | Activity (A2058) | Activity (A549) | Activity (HepG2) | Activity (HL-60)

CCCCC[C@H](O)[C@@H](O)C[C@@H]1OCc2c(O)ccc(CC=C(C)C)c21
> 64 µg/mL: MIC (Staphylococcus aureus [1]) | MIC (Escherichia coli) | MIC (Staphylococcus aureus [2]) | MIC (Klebsiella pneumoniae)
inactive: Activity (MIA PaCa-2) | Activity (MCF7) | Activity (A2058) | Activity (A549) | Activity (HepG2) | Activity (HL-60)
